From patent US9642829B2, “Antifungal compound and uses thereof” (The University of Hong Kong, priority 2012, dated 2017)

Tests used:
C. albicans biofilms = assay: Mono species Candida biofilm MIC, XTT assay; assay type: cell-based, Candida albicans; details: for Biofilm MIC90: 24 h C. albicans biofilms, 24 h drug exposure, XTT; for Minimum inhibitory concentration of 48 h Candida biofilms: 48 h C. albicans biofilms
Experimental: (§1) For instance, we have previously shown the resistance of Candida biofilms against amphotericin and caspofungin. Therefore, next using standard biofilm assays we have established in our laboratory, we examined the effect of SM21 against Candida biofilms. In brief, Candida cells were grown in SDA medium at 37° C. for 18 h. Then a loopful of the yeast was inoculated into the yeast nitrogen base (YNB; Difco) medium supplemented with 50 mM glucose in a rotary shaker at 75 rpm. After overnight broth culture, the yeasts were harvested in the late exponential growth phase and washed twice with 20 ml of phosphate buffer saline (PBS; pH 7.2. 0.1 M) prior to use in the biofilm studies. Candida biofilms were developed according to a previously published protocol. In brief, washed yeast cells were resuspended in YNB supplemented with 100 mM glucose and adjusted to an optical density of 0.38 at 520 nm (1×10^7 cells/ml). The standard cell suspension was used immediately to develop biofilms on commercially available presterilized, polystyrene, 96-well plate (IWAKI, Tokyo, Japan). At first, 100 μl of standardized cell suspension (1×10^7 cells/ml) was pipetted into each well of a microtiter plate and incubated for 1.5 h at 37° C. in a shaker at 75 rpm to permit yeast adherence to the well surface (adherence phase). For controls, a well of each microtiter plate was handled in an identical fashion except that no Candida suspension was added. Following the adhesion phase, the cell suspensions were aspirated, and each well washed with 100 μl of PBS to remove loosely adherent cells. 200 μl of YNB with 100 mM glucose were then pipetted into each of the washed wells and the plates incubated at 37° C. in a shaker at 75 rpm for 24 or 48 h. After biofilm growth phase microscopic examination of the cultures were performed to rule out contamination. Then, the suspending medium was aspirated and biofilms were washed with 100 μl PBS to remove the nonadherent cells. The stock solutions were diluted twofold with RPMI 1640 supplemented with 2% glucose to obtain SM21 concentration from 100 to 0.2 μg/ml drug concentrations. In parallel, other antifungal agents such as caspofungin (100 to 0.1 μg/ml) and amphotericin B (240 μg/ml to 0.225 μg/ml) was also prepared as describe above. A total of 100 μl of drug solution was added to the microtiter plate containing Candida biofilms. Biofilms were then incubated at 37° C. for 24 h with the antifungals and afterwards metabolic activity of fungal cells was determined by the XTT [2,3-bis(2-methoxy-4-nitro-5-sulfophenyl)-2H-tetrazolium-5-carboxanilide sodium salt] assay (17, 28). Candida biofilm MIC90 was defined as the lowest drug concentration with 90% reduction in opacity compared with the drug free control. Each experiment was repeated three times with four replicates.

C. glabrata biofilms = assay: Mono species Candida biofilm MIC, XTT assay; assay type: cell-based; details: 48 h C. glabrata biofilms
Experimental: as §1

C. krusei biofilms = assay: Mono species Candida biofilm MIC, XTT assay; assay type: cell-based; details: 48 h C. krusei biofilms
Experimental: as §1

C. albicans [1] = assay: Antifungal susceptibility (MIC/MFC), CLSI criteria, 96-well double dilution; assay type: cell-based, Candida albicans; details: 0.5 McFarland inoculum (10^6 cells/ml)
Experimental: (§2) Antifungal activity of the small molecules was evaluated using USA standards, Clinical and Laboratory Standards Institute (CLSI) criteria. In brief, inocula from 24 h Candida cultures on Sabourauds's dextore agar were standardized to a turbidity equivalent of 0.5 McFarland standards at 520 nm with a spectrophotometer. The suspensions were further diluted in Rosewell Park Memorial Institute (RPMI) 1640 medium (Life technologies, New York, USA) to yield an inoculum concentration of approximately 0.5 1×10^3 to 2.5 1×10^3 cells/ml. Minimum inhibitory concentration (MIC) and minimum fungicidal concentration (MFC) assay was performed in 96-well plates (Iwaki, Tokyo, Japan) and each of the Candida species was exposed to a double dilution of SM21. Amphotericin B was used as a positive control. All the experiments were preformed three occasions with duplicates for all isolates. The plates were incubated at 35° C. for 48 h to evaluate MIC. In the case of Cryotococcus neoformans, reading were taken after 72 h. Aforementioned assay was performed for C. albicans ATCC 90028, C. albicans SC5314 and 10 C. albicans clinical isolates. Moreover, MIC/MFC determination was carried out for other fungal species such as C. glabrata, C. krusei, C. tropicalis, C. parapsilosis, C. neoformans, Aspergillus fumigates and Penicillium marneffei. […] Next using dose-dependent assay we tested that MIC/MFC of SM21 from 10^3 cells/ml to 10^7 cells/ml of C. albicans (Table 2). Each of the foregoing experiment was repeated on three different occasions.

Penicillium marneffei = assay: Antifungal susceptibility (MIC/MFC), CLSI criteria; assay type: cell-based; details: 0.5 McFarland inoculum (10^6 cells/ml)
Experimental: as §2

Aspergillus fumigatus = assay: Antifungal susceptibility (MIC/MFC), CLSI criteria; assay type: cell-based; details: 0.5 McFarland inoculum (10^6 cells/ml)
Experimental: as §2

C. albicans [2] = assay: Dose-dependent assay of MIC/MFC at different cell densities; assay type: cell-based, Candida albicans; design: unit not given here
Experimental: as §2

[3] = system: C. albicans SC5314 and C. albicans ATCC 90028; assay: Antifungal activity compared with caspofungin and amphotericin B (FIG. 2, CLSI M44-A disc diffusion); assay type: cell-based, Candida albicans
From the text: (§3) Oral Biosciences laboratory has one of the largest collections of fungal isolates, particular that of Candida species in the world. In our previous studies, we have found multidrug resistant clinical isolates of Candida species against existing antifungals. In particular, some of these strains are resistant to best antifungal agents to date such as caspofungin, amphotericin B and fluconazole. Therefore, we performed antifungal susceptibility testing for SM21 against these drug resistant Candida isolates suing CLSI M27A brothmicrodultion assay and CLSI M44-A disc diffusion assay.

C. krusei = assay: Antifungal susceptibility (MIC/MFC), CLSI criteria; assay type: cell-based, Candida krusei; details: C. krusei ATCC; 0.5 McFarland inoculum (10^6 cells/ml)
Experimental: (§4) Antifungal activity of the small molecules was evaluated using USA standards, Clinical and Laboratory Standards Institute (CLSI) criteria. In brief, inocula from 24 h Candida cultures on Sabourauds's dextore agar were standardized to a turbidity equivalent of 0.5 McFarland standards at 520 nm with a spectrophotometer. The suspensions were further diluted in Rosewell Park Memorial Institute (RPMI) 1640 medium (Life technologies, New York, USA) to yield an inoculum concentration of approximately 0.5 1×10^3 to 2.5 1×10^3 cells/ml. Minimum inhibitory concentration (MIC) and minimum fungicidal concentration (MFC) assay was performed in 96-well plates (Iwaki, Tokyo, Japan) and each of the Candida species was exposed to a double dilution of SM21. Amphotericin B was used as a positive control. All the experiments were preformed three occasions with duplicates for all isolates. The plates were incubated at 35° C. for 48 h to evaluate MIC. In the case of Cryotococcus neoformans, reading were taken after 72 h. Aforementioned assay was performed for C. albicans ATCC 90028, C. albicans SC5314 and 10 C. albicans clinical isolates. Moreover, MIC/MFC determination was carried out for other fungal species such as C. glabrata, C. krusei, C. tropicalis, C. parapsilosis, C. neoformans, Aspergillus fumigates and Penicillium marneffei. […]

C. tropicalis = assay: Antifungal susceptibility (MIC/MFC), CLSI criteria; assay type: cell-based, Candida tropicalis; details: C. tropicalis ATCC; 0.5 McFarland inoculum (10^6 cells/ml)
Experimental: as §4

C. parapsilosis = assay: Antifungal susceptibility (MIC/MFC), CLSI criteria; assay type: cell-based, Candida parapsilosis; details: C. parapsilosis ATCC; 0.5 McFarland inoculum (10^6 cells/ml)
Experimental: as §4

C. glabrata = assay: Antifungal susceptibility (MIC/MFC), CLSI criteria; assay type: cell-based, Candida glabrata; details: C. glabrata ATCC; 0.5 McFarland inoculum (10^6 cells/ml)
Experimental: as §4

C. neoformans = assay: Antifungal susceptibility (MIC/MFC), CLSI criteria, reading after 72 h; assay type: cell-based, Cryptococcus neoformans; details: 0.5 McFarland inoculum (10^6 cells/ml)
Experimental: as §4

resistant isolate T-1549 = assay: Antifungal activity compared with caspofungin and amphotericin B (FIG. 2, CLSI M44-A disc diffusion); assay type: cell-based, C. guilliermondii; details: resistant isolate T-1549 (FIG. 2C)
From the text: as §3

[4] = C. albicans ATCC 90028, CLSI quality control strain (FIG. 2B)

## C[C@@H]1[C@H](O)[C@@H](C)/C=C/C=C/C=C/C=C/C=C/C=C/C=C/[C@H](O[C@@H]2O[C@H](C)[C@@H](O)[C@H](N)[C@@H]2O)C[C@@H]2O[C@](O)(C[C@@H](O)C[C@@H](O)[C@H](O)CC[C@@H](O)C[C@@H](O)CC(=O)O[C@H]1C)C[C@H](O)[C@H]2C(=O)O [Amphotericin B, reference compound]
C. albicans biofilms
  Biofilm MIC90: 32 µg/mL
  Minimum inhibitory concentration of 48 h Candida biofilms: 32 µg/mL
C. glabrata biofilms
  Minimum inhibitory concentration of 48 h Candida biofilms: 16 µg/mL
C. krusei biofilms
  Minimum inhibitory concentration of 48 h Candida biofilms: 32 µg/mL
C. albicans [1]; C. albicans ATCC 90028
  Susceptibility (MIC90): 0.2 µg/mL
C. albicans [1]; C. albicans CL1
  Susceptibility (MIC90): 0.2 µg/mL
C. albicans [1]; C. albicans CL2
  Susceptibility (MIC90): 0.4 µg/mL
C. albicans [1]; C. albicans CL3
  Susceptibility (MIC90): 0.4 µg/mL
C. albicans [1]; C. albicans CL4
  Susceptibility (MIC90): 0.2 µg/mL
C. albicans [1]; C. albicans CL5
  Susceptibility (MIC90): 0.2 µg/mL
C. albicans [1]; C. albicans CL6
  Susceptibility (MIC90): 0.2 µg/mL
C. albicans [1]; C. albicans CL7
  Susceptibility (MIC90): 0.2 µg/mL
C. albicans [1]; C. albicans CL8
  Susceptibility (MIC90): 0.4 µg/mL
C. albicans [1]; C. albicans CL9
  Susceptibility (MIC90): 0.4 µg/mL
C. albicans [1]; C. albicans CL10
  Susceptibility (MIC90): 0.2 µg/mL
C. albicans [1]; C. albicans SC5314
  Susceptibility (MIC90): 0.2 µg/mL
Penicillium marneffei
  Susceptibility (MIC90): 0.05 µg/mL
Aspergillus fumigatus
  Susceptibility (MIC90): 1.56 µg/mL
C. albicans [2]; C. albicans 10^4 cells/ml
  MIC/MFC: 0.2
C. albicans [2]; C. albicans 10^5 cells/ml
  MIC/MFC: 0.2
C. albicans [2]; C. albicans 10^6 cells/ml
  MIC/MFC: 0.2
C. albicans [2]; C. albicans 10^7 cells/ml
  MIC/MFC: 0.8
[3]; [4]
  Susceptibility of the strain to the agent: susceptible
[3]; C. albicans SC5314 (FIG. 2A)
  Susceptibility of the strain to the agent: susceptible
C. krusei
  Susceptibility (MIC90): 0.4 µg/mL
C. tropicalis
  Susceptibility (MIC90): 0.8 µg/mL
C. parapsilosis
  Susceptibility (MIC90): 0.8 µg/mL
C. glabrata
  Susceptibility (MIC90): 0.4 µg/mL
C. neoformans
  Susceptibility (MIC90): 0.4 µg/mL
Resistant isolate T-1549
  Effectiveness against resistant isolate: only SM21 was effective

## CC(=O)N1CCN(c2ccc(OCC3COC(Cn4ccnc4)(c4ccc(Cl)cc4Cl)O3)cc2)CC1 (stereo not shown) [Ketoconazole]
C. albicans biofilms
  Minimum inhibitory concentration of 48 h Candida biofilms: 64 µg/mL
C. glabrata biofilms
  Minimum inhibitory concentration of 48 h Candida biofilms: 64 µg/mL
C. krusei biofilms
  Minimum inhibitory concentration of 48 h Candida biofilms: 64 µg/mL

## Nc1nc(=O)[nH]cc1F [5-fluorocytosine]
C. albicans biofilms
  Minimum inhibitory concentration of 48 h Candida biofilms: 420 µg/mL
C. glabrata biofilms
  Minimum inhibitory concentration of 48 h Candida biofilms: 420 µg/mL
C. krusei biofilms
  Minimum inhibitory concentration of 48 h Candida biofilms: 250 µg/mL

## CC[C@H](C)C[C@H](C)CCCCCCCCC(=O)N[C@H]1C[C@@H](O)[C@@H](NCCN)NC(=O)[C@@H]2[C@@H](O)CCN2C(=O)[C@H]([C@H](O)CCN)NC(=O)[C@H]([C@H](O)[C@@H](O)c2ccc(O)cc2)NC(=O)[C@@H]2C[C@@H](O)CN2C(=O)[C@H]([C@@H](C)O)NC1=O [Caspofungin]
C. albicans biofilms
  Biofilm MIC90: 50 µg/mL
  Minimum inhibitory concentration of 48 h Candida biofilms: 100 µg/mL
C. glabrata biofilms
  Minimum inhibitory concentration of 48 h Candida biofilms: 100 µg/mL
C. krusei biofilms
  Minimum inhibitory concentration of 48 h Candida biofilms: 100 µg/mL
[3]; [4]
  Susceptibility of the strain to the agent: susceptible
[3]; C. albicans SC5314 (FIG. 2A)
  Susceptibility of the strain to the agent: susceptible
Resistant isolate T-1549
  Effectiveness against resistant isolate: only SM21 was effective
